From ChEMBL document CHEMBL1201862, “PubChem BioAssay data set” (2004)
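How tested: cells in 96-well plates exposed to compound for 48 hours at five concentrations. The concentration for 50% growth inhibition is given as GI50.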 Activity calls are given as the source filed them. Rule as the data show it: active = GI50 up to about 1.1 µM and inactive = higher.

What was measured:
Test in all cases: NCI tumour cell line growth inhibition, 48 h
[1] = system: IGROV-1
[2] = system: KM12
[3] = system: SNB-19
[4] = system: SK-OV-3
[5] = system: OVCAR-4
[6] = system: NCI-H522
[7] = system: HCT-15
[8] = system: NCI-H23
[9] = system: HOP-62
[10] = system: U-251
[11] = system: SNB-75
[12] = system: SR
[13] = system: UACC-257
[14] = system: UO-31
[15] = system: HOP-92
[16] = system: HCC 2998
[17] = system: UACC-62
[18] = system: MDA-MB-231
[19] = system: RPMI-8226
[20] = system: SF-295
[21] = system: OVCAR-5
[22] = system: MDA-N
[23] = system: OVCAR-8
[24] = system: DU-145
[25] = system: COLO 205
[26] = system: EKVX
[27] = system: SW-620
[28] = system: LOX IMVI
[29] = system: CAKI-1
[30] = system: MOLT-4
[31] = system: A549
[32] = system: ACHN
[33] = system: CCRF-CEM
[34] = system: Malme-3M
[35] = system: M14
[36] = system: SF-539
[37] = system: TK-10
[38] = system: NCI-H226
[39] = system: MCF7
[40] = system: SK-MEL-28
[41] = system: NCI/ADR-RES
[42] = system: Hs-578T
[43] = system: SN12C
[44] = system: MDA-MB-435
[45] = system: NCI-H460
[46] = system: K562
[47] = system: BT-549
[48] = system: HCT-116
[49] = system: PC-3
[50] = system: SK-MEL-5
[51] = system: HT-29
[52] = system: T47D
[53] = system: 786-0
[54] = system: OVCAR-3
[55] = system: SF-268
[56] = system: A498
[57] = system: RXF 393
[58] = system: SK-MEL-2
[59] = system: HL-60

With `CCOC1CN(C)/C(=N\c2cccc3ccccc23)S1` (stereo not drawn) as the molecule, how does the GI50 [1] read?
Its GI50 is > 10 µM (inactive).

And the GI50 [2]?
The GI50 was > 10 µM (inactive).

And the GI50 [3]?
Its GI50 is > 10 µM (inactive).

And the GI50 [4]?
Its GI50 is > 10 µM (inactive).

And the GI50 [5]?
Its GI50 is > 10 µM (inactive).

And the GI50 [6]?
The GI50 was > 10 µM (inactive).

And the GI50 [7]?
Its GI50 is over 10 µM.

And the GI50 [8]?
Its GI50 is > 10 µM (inactive).

What about the GI50 [9] of the same molecule?
Its GI50 is > 10 µM (inactive).

And the GI50 [10]?
Its GI50 is > 10 µM (inactive).

And the GI50 [11]?
Its GI50 is > 10 µM (inactive).

And the GI50 [12]?
Its GI50 is > 10 µM (inactive).

What about the GI50 [13] of the same molecule?
Its GI50 is > 10 µM (inactive).

And the GI50 [14]?
Its GI50 is > 10 µM (inactive).

And the GI50 [15]?
Its GI50 is > 10 µM (inactive).

What about the GI50 [16] of the same molecule?
Its GI50 is > 10 µM (inactive).

And the GI50 [17]?
The GI50 was > 10 µM (inactive).

What about the GI50 [18] of the same molecule?
The GI50 was > 10 µM (inactive).

And the GI50 [19]?
Its GI50 is > 10 µM (inactive).

And the GI50 [20]?
The GI50 was > 10 µM (inactive).

What about the GI50 [21] of the same molecule?
Its GI50 is > 10 µM (inactive).

What about the GI50 [22] of the same molecule?
The GI50 was > 10 µM (inactive).

And the GI50 [23]?
The GI50 was > 10 µM (inactive).

What about the GI50 [24] of the same molecule?
Its GI50 is > 10 µM (inactive).

And the GI50 [25]?
The GI50 was > 10 µM (inactive).

And the GI50 [26]?
Its GI50 is > 10 µM (inactive).

And the GI50 [27]?
The GI50 was > 10 µM (inactive).

What about the GI50 [28] of the same molecule?
The GI50 was > 10 µM (inactive).

And the GI50 [29]?
Its GI50 is > 10 µM (inactive).

And the GI50 [30]?
Its GI50 is > 10 µM (inactive).

And the GI50 [31]?
Its GI50 is > 10 µM (inactive).

What about the GI50 [32] of the same molecule?
The GI50 was > 10 µM (inactive).

What about the GI50 [33] of the same molecule?
The GI50 was > 10 µM (inactive).

What about the GI50 [34] of the same molecule?
Its GI50 is > 10 µM (inactive).

What about the GI50 [35] of the same molecule?
The GI50 was > 10 µM (inactive).

And the GI50 [36]?
Its GI50 is > 10 µM (inactive).

And the GI50 [37]?
The GI50 was > 10 µM (inactive).

And the GI50 [38]?
The GI50 was > 10 µM (inactive).

And the GI50 [39]?
Its GI50 is > 10 µM (inactive).

And the GI50 [40]?
The GI50 was > 10 µM (inactive).

What about the GI50 [41] of the same molecule?
Its GI50 is > 10 µM (inactive).

What about the GI50 [42] of the same molecule?
Its GI50 is > 10 µM (inactive).

What about the GI50 [43] of the same molecule?
Its GI50 is > 10 µM (inactive).

What about the GI50 [44] of the same molecule?
The GI50 was > 10 µM (inactive).

What about the GI50 [45] of the same molecule?
The GI50 was > 10 µM (inactive).

And the GI50 [46]?
The GI50 was > 10 µM (inactive).

What about the GI50 [47] of the same molecule?
The GI50 was > 10 µM (inactive).

What about the GI50 [48] of the same molecule?
Its GI50 is > 10 µM (inactive).

What about the GI50 [49] of the same molecule?
The GI50 was > 10 µM (inactive).

And the GI50 [50]?
Its GI50 is > 10 µM (inactive).

And the GI50 [51]?
Its GI50 is > 10 µM (inactive).

What about the GI50 [52] of the same molecule?
Its GI50 is > 10 µM (inactive).

What about the GI50 [53] of the same molecule?
Its GI50 is > 10 µM (inactive).

What about the GI50 [54] of the same molecule?
Its GI50 is > 10 µM (inactive).

And the GI50 [55]?
Its GI50 is > 10 µM (inactive).

What about the GI50 [56] of the same molecule?
Its GI50 is > 10 µM (inactive).

What does the source list for `Cc1cc2sc(C)[n+](CCCOS(=O)(=O)[O-])c2cc1C`?
GI50 [1]: > 100 µM (inactive); GI50 [2]: > 100 µM (inactive); GI50 [3]: > 100 µM (inactive); GI50 [4]: > 100 µM (inactive); GI50 [5]: > 100 µM (inactive); GI50 [6]: 40.6 µM (inactive); GI50 [57]: > 100 µM (inactive); GI50 [7]: > 100 µM; GI50 [8]: > 100 µM (inactive); GI50 [9]: > 100 µM (inactive); GI50 [10]: > 100 µM (inactive); GI50 [11]: > 100 µM (inactive); GI50 [12]: 66.2 µM (inactive); GI50 [13]: > 100 µM (inactive); GI50 [14]: > 100 µM (inactive); GI50 [15]: > 100 µM (inactive); GI50 [17]: > 100 µM (inactive); GI50 [18]: > 100 µM (inactive); GI50 [19]: 53 µM (inactive); GI50 [20]: > 100 µM (inactive); GI50 [21]: > 100 µM (inactive); GI50 [22]: > 100 µM (inactive); GI50 [23]: > 100 µM (inactive); GI50 [24]: > 100 µM (inactive); GI50 [25]: > 100 µM (inactive); GI50 [26]: > 100 µM (inactive); GI50 [27]: > 100 µM (inactive); GI50 [28]: > 100 µM (inactive); GI50 [29]: > 100 µM (inactive); GI50 [30]: 72.4 µM (inactive); GI50 [31]: > 100 µM (inactive); GI50 [32]: > 100 µM (inactive); GI50 [34]: 79.6 µM (inactive); GI50 [35]: > 100 µM (inactive); GI50 [36]: > 100 µM (inactive); GI50 [37]: > 100 µM (inactive); GI50 [38]: > 100 µM (inactive); GI50 [58]: > 100 µM (inactive); GI50 [39]: 60.8 µM (inactive); GI50 [40]: > 100 µM (inactive); GI50 [41]: > 100 µM (inactive); GI50 [42]: 27.9 µM (inactive); GI50 [59]: > 100 µM (inactive); GI50 [43]: > 100 µM (inactive); GI50 [44]: > 100 µM (inactive); GI50 [45]: > 100 µM (inactive); GI50 [46]: 63.4 µM (inactive); GI50 [47]: > 100 µM (inactive); GI50 [48]: > 100 µM (inactive); GI50 [49]: > 100 µM (inactive); GI50 [50]: > 100 µM (inactive); GI50 [51]: > 100 µM (inactive); GI50 [52]: 58.6 µM (inactive); GI50 [53]: > 100 µM (inactive); GI50 [54]: > 100 µM (inactive); GI50 [55]: 62.5 µM (inactive); GI50 [56]: > 100 µM (inactive)
